Measurements published in ChEMBL document CHEMBL1122346, “Antihypertensive activity of 6-arylpyrido[2,3-d]pyrimidin-7-amine derivatives. 2. 7-Acyl amide analogues” (J Med Chem, 1983).

Columns and labels:
Type in all cases: functional
Rattus norvegicus [1] = experiment: Antihypertensive activity rating in conscious SHR after 2 hr post dose at 50 mg/kg (po); Range 20-30%
Rattus norvegicus [2] = experiment: Antihypertensive activity in conscious spontaneously hypertensive rats 24 hr following 50 mg/kg p.o.; No significant reduction.; conditions: route oral
Rattus norvegicus [3] = organism: Rattus norvegicus; experiment: Maximum percent decrease in blood pressure in SHR ( hour post dose in parentheses)
Rattus norvegicus [4] = experiment: Antihypertensive activity in conscious spontaneously hypertensive rats 10 hr following 50 mg/kg p.o.; No significant reduction.; conditions: route oral
Rattus norvegicus [5] = experiment: Antihypertensive activity rating in conscious SHR after 24 h post dose at 10 mg/kg (po); 0=No significant reduction
Rattus norvegicus [6] = experiment: Antihypertensive activity rating in conscious SHR after 10 hr post dose at 10 mg/kg (po); 0=No significant reduction
Rattus norvegicus [7] = experiment: Antihypertensive activity rating in conscious SHR after 2 hr post dose at 10 mg/kg (po); 0=No significant reduction
Rattus norvegicus [8] = experiment: Antihypertensive activity in conscious spontaneously hypertensive rats 2 hr following 50 mg/kg p.o.; No significant reduction.; conditions: route oral
Rattus norvegicus [9] = experiment: Antihypertensive activity rating in conscious SHR after 2 hr post dose at 50 mg/kg (po); Range 10-20%
Rattus norvegicus [10] = experiment: Antihypertensive activity rating in conscious SHR after 24 h post dose at 50 mg/kg (po); Range 20-30%
Rattus norvegicus [11] = experiment: Antihypertensive activity rating in conscious SHR after 24-72 hr post dose at 10 mg/kg (po); Range 10-20%
Rattus norvegicus [12] = experiment: Antihypertensive activity rating in conscious SHR after 10 hr post dose at 10 mg/kg (po); Range 10-20%
Rattus norvegicus [13] = experiment: Antihypertensive activity rating in conscious SHR after 10 hr post dose at 50 mg/kg (po); Range 20-30%
Rattus norvegicus [14] = experiment: Antihypertensive activity rating in conscious SHR after 2 hr post dose at 10 mg/kg (po); Range 10-20%
Rattus norvegicus [15] = experiment: Antihypertensive activity rating in conscious SHR after 24 hr post dose at 50 mg/kg (po); Range 10-20%
Rattus norvegicus [16] = experiment: Antihypertensive activity in conscious spontaneously hypertensive rats 10 hr following 50 mg/kg p.o.; Range 10-20%.; conditions: route oral

Compound	Activity rating (Rattus norvegicus [2]) [%]	Decrease (Rattus norvegicus [3]) [%]	Activity rating (Rattus norvegicus [4]) [%]	Activity rating (Rattus norvegicus [5]) [%]	Activity rating (Rattus norvegicus [8]) [%]	Activity rating (Rattus norvegicus [16]) [%]	further results
CC(=O)Nc1nc2nc(C)nc(C)c2cc1-c1c(Cl)cccc1Cl	0	20	0	–	–	–	Activity rating (Rattus norvegicus [1]): 20%
COc1ccc(CC(=O)Nc2nc3nc(C)ncc3cc2-c2c(Cl)cccc2Cl)cc1OC	–	–	–	0	–	–	Activity rating (Rattus norvegicus [6]): 0%; Activity rating (Rattus norvegicus [7]): 0%
CCNC(=O)Nc1nc2nc(C)ncc2cc1-c1c(Cl)cccc1Cl	0	–	0	–	0	–	–
Cc1ncc2cc(-c3c(Cl)cccc3Cl)c(NC(=O)c3ccccn3)nc2n1	–	29	–	–	–	–	Activity rating (Rattus norvegicus [9]): 10%; Activity rating (Rattus norvegicus [10]): 20%; Activity rating (Rattus norvegicus [11]): 10%; Activity rating (Rattus norvegicus [12]): 10%; Activity rating (Rattus norvegicus [13]): 20%
Cc1ncc2cc(-c3c(Cl)cccc3Cl)c(NC(=O)CN(C)C)nc2n1	–	18	–	0	–	–	Activity rating (Rattus norvegicus [12]): 10%; Activity rating (Rattus norvegicus [14]): 10%
Cc1ncc2cc(-c3c(Cl)cccc3Cl)c(NC(=O)c3ccccc3C)nc2n1	–	23	–	–	0	10	Activity rating (Rattus norvegicus [15]): 10%
Cc1ncc2cc(-c3c(Cl)cccc3Cl)c(NS(C)(=O)=O)nc2n1	–	22	–	0	–	10	Activity rating (Rattus norvegicus [9]): 10%; Activity rating (Rattus norvegicus [10]): 20%; Activity rating (Rattus norvegicus [6]): 0%; Activity rating (Rattus norvegicus [7]): 0%
CN/C(=N/c1nc2nc(C)ncc2cc1-c1c(Cl)cccc1Cl)SC	0	–	0	–	0	–	–
COc1ccccc1C(=O)Nc1nc2nc(C)ncc2cc1-c1c(Cl)cccc1Cl	–	–	–	0	–	–	Activity rating (Rattus norvegicus [6]): 0%; Activity rating (Rattus norvegicus [7]): 0%
Cc1ncc2cc(-c3c(Cl)cccc3Cl)c(/N=C/N(C)C)nc2n1	–	17	–	–	0	10	Activity rating (Rattus norvegicus [15]): 10%
C/N=C(\N)Nc1nc2nc(C)ncc2cc1-c1c(Cl)cccc1Cl	0	24	–	–	–	10	Activity rating (Rattus norvegicus [1]): 20%
Cc1ncc2cc(-c3c(Cl)cccc3Cl)c(NC(=O)c3cccc(N(C)C)c3)nc2n1	–	15	–	–	0	10	Activity rating (Rattus norvegicus [15]): 10%
Cc1ncc2cc(-c3c(Cl)cccc3Cl)c(NC(=O)CNC(=O)OCc3ccccc3)nc2n1	–	29	–	0	–	–	Activity rating (Rattus norvegicus [9]): 10%; Activity rating (Rattus norvegicus [15]): 10%; Activity rating (Rattus norvegicus [6]): 0%; Activity rating (Rattus norvegicus [13]): 20%; Activity rating (Rattus norvegicus [14]): 10%
C=CCNC(=O)Nc1nc2nc(C)ncc2cc1-c1c(Cl)cccc1Cl	0	13	–	–	0	10	–
COc1ccc(C(=O)Nc2nc3nc(C)ncc3cc2-c2c(Cl)cccc2Cl)cc1OC	–	16	–	0	–	–	Activity rating (Rattus norvegicus [12]): 10%; Activity rating (Rattus norvegicus [14]): 10%
Cc1ncc2cc(-c3c(Cl)cccc3Cl)c(NC(=O)C(C)C)nc2n1	–	15	–	0	–	–	Activity rating (Rattus norvegicus [6]): 0%; Activity rating (Rattus norvegicus [14]): 10%
Cc1ncc2cc(-c3c(Cl)cccc3Cl)c(NC(=O)C(Cl)Cl)nc2n1	–	16	–	0	–	–	Activity rating (Rattus norvegicus [12]): 10%; Activity rating (Rattus norvegicus [14]): 10%
C/N=C(\NC)Nc1nc2nc(C)ncc2cc1-c1c(Cl)cccc1Cl	0	24	–	–	–	10	Activity rating (Rattus norvegicus [1]): 20%
Cc1ncc2cc(-c3c(Cl)cccc3Cl)c(NC(=O)N(C)C)nc2n1	–	26	–	–	–	10	Activity rating (Rattus norvegicus [9]): 10%; Activity rating (Rattus norvegicus [10]): 20%
Cc1ncc2cc(-c3c(Cl)cccc3Cl)c(NC(=O)C3CC3)nc2n1	0	–	0	–	0	–	–

Compound	Activity rating (Rattus norvegicus [2]) [%]	Decrease (Rattus norvegicus [3]) [%]	Activity rating (Rattus norvegicus [4]) [%]	Activity rating (Rattus norvegicus [5]) [%]	Activity rating (Rattus norvegicus [8]) [%]	Activity rating (Rattus norvegicus [16]) [%]	further results
CC(=O)Nc1nc2nc(C)ncc2cc1-c1ccccc1C	0	–	0	–	0	–	–
CC(=O)Nc1nc2ncncc2cc1-c1ccccc1C	0	–	0	–	0	–	–
C/C(=N\c1nc2nc(C)ncc2cc1-c1c(Cl)cccc1Cl)N(C)C	–	18	0	–	–	–	Activity rating (Rattus norvegicus [9]): 10%; Activity rating (Rattus norvegicus [15]): 10%
Cc1ncc2cc(-c3c(Cl)cccc3Cl)c(=O)n(C)c2n1	0	–	0	–	0	–	–
Cc1ncc2cc(-c3c(Cl)cccc3Cl)c(NC(=O)OC(C)C)nc2n1	–	15	–	0	–	–	Activity rating (Rattus norvegicus [12]): 10%; Activity rating (Rattus norvegicus [7]): 0%
Cc1ncc2cc(-c3c(Cl)cccc3Cl)c(NC(=O)c3ccccc3F)nc2n1	–	–	–	0	–	–	Activity rating (Rattus norvegicus [6]): 0%; Activity rating (Rattus norvegicus [7]): 0%
CC(=O)Nc1nc2ncncc2cc1-c1c(Cl)cccc1Cl	0	16	–	–	–	10	Activity rating (Rattus norvegicus [9]): 10%
CC(=O)Nc1nc2nc(C)nc(C)c2cc1-c1ccccc1C	0	–	0	–	0	–	–
C/N=C(\S)Nc1nc2nc(C)ncc2cc1-c1c(Cl)cccc1Cl	0	12	–	–	0	10	–
CC(=O)Nc1nc2nc(C3CC3)ncc2cc1-c1c(Cl)cccc1Cl	0	24	–	–	–	10	Activity rating (Rattus norvegicus [9]): 10%
Cc1ncc2cc(-c3c(Cl)cccc3Cl)c(NC(=O)Cc3ccccc3)nc2n1	–	17	–	–	–	10	Activity rating (Rattus norvegicus [9]): 10%; Activity rating (Rattus norvegicus [15]): 10%
CC(=O)Nc1nc2nc(C)nc(NC(C)=O)c2cc1-c1c(Cl)cccc1Cl	0	–	0	–	0	–	–
CNC(=O)Nc1nc2nc(C)ncc2cc1-c1c(Cl)cccc1Cl	0	26	–	–	–	10	Activity rating (Rattus norvegicus [1]): 20%
Cc1ncc2cc(-c3c(Cl)cccc3Cl)c(NC(=O)C(C)(C)C)nc2n1	–	–	–	0	–	–	Activity rating (Rattus norvegicus [6]): 0%; Activity rating (Rattus norvegicus [7]): 0%
Cc1ncc2cc(-c3c(Cl)cccc3Cl)c(NC(=O)Nc3ccccc3)nc2n1	0	–	0	–	0	–	–
Cc1ncc2cc(-c3c(Cl)cccc3Cl)c(NC(=O)c3ccccc3)nc2n1	–	30	–	–	–	–	Activity rating (Rattus norvegicus [1]): 20%; Activity rating (Rattus norvegicus [10]): 20%; Activity rating (Rattus norvegicus [13]): 20%
Cc1ncc2cc(-c3c(Cl)cccc3Cl)c(NC(N)=O)nc2n1	0	16	0	–	0	–	–
Cc1ncc2cc(-c3c(Cl)cccc3Cl)c(NC(=O)Cc3c(Cl)cccc3Cl)nc2n1	–	–	–	0	–	–	Activity rating (Rattus norvegicus [6]): 0%; Activity rating (Rattus norvegicus [7]): 0%
CCSCC(=O)Nc1nc2nc(C)ncc2cc1-c1c(Cl)cccc1Cl	–	19	–	0	–	–	Activity rating (Rattus norvegicus [6]): 0%; Activity rating (Rattus norvegicus [14]): 10%
